Data taken from US20230250096A1, “SUBSTITUTED PHENYL-1H-PYRROLO[2,3-c] PYRIDINE DERIVATIVES” (Janssen Pharmaceutica NV, priority 2021, published 2023).

How the values were obtained:
Type in all cases: cell-based, human
MOLM14 cells = test: Proliferation assay (spheroid confluence, 8 days), MOLM14; settings: Homo sapiens, MOLM-14, MOLM14; read-out: spheroid assay_MOLM14 IC50
Procedure, shortened: (§1)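 Absolute IC50 derived from spheroid confluence imaged on day 8, scaled between DMSO (0%) and a cytotoxic low control such as 1 μM staurosporin, fitted with variable slope, bounds fixed at 0 and 100%. Seeding 200 cells/well (300 for KO-52), ultra-low attachment plates, 0.3% DMSO, 37° C.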

KO-52 cells = test: Proliferation assay (spheroid confluence, 8 days), KO-52 control cell line; settings: Homo sapiens, read-out: spheroid assay_KO-52 IC50
Procedure, shortened: as §1

OCI-AML3 cells = test: Proliferation assay (spheroid confluence, 8 days), OCI-AML3; settings: Homo sapiens, OCI-AML-3, OCI-AML3; read-out: spheroid assay_OCI-AML3 IC50
Procedure, shortened: as §1

IC50 (MOLM14 cells) [nM] | IC50 (OCI-AML3 cells) [nM] | Structure (SMILES) | IC50 (KO-52 cells) [nM]
10 | 11 | CC(=O)N1CCC(CN2CCC(Cc3cn(-c4ccc(F)cc4C(=O)N(C)C(C)C)c4cncc(C)c34)C2C)CC1 (stereo not drawn) [Compound 228] | 5800
15 | 23 | CC(=O)N1CCC(N2CC[C@H](Cc3cn(-c4ccc(F)cc4C(=O)N(C)C(C)C)c4cncc(C)c34)C2)C(C)C1 (single isomer, unassigned) [Compound 137a] | 1100
7 | 11 | Cc1cncc2c1c(C[C@@H]1CCN(C[C@H]3CCNC(=O)CC3)C1)cn2-c1ccc(F)cc1C(=O)N1[C@H](C)CC[C@H]1C (single isomer, unassigned) [Compound 352a] | > 15000
